Test results as given in patent US20170087165A1, “METHODS FOR REDUCING THE OCCURRENCE OF PRETERM DELIVERY AND OTHER PREGNANCY-RELATED CONDITIONS” (Lumara Health IP, Ltd., priority 2009, published 2017).
Where “and” joins values, the source holds several entries; their conditions need not be identical. Identical values can stand only once.

Columns and labels:
[1] = tested on: children of the mothers who participated in the trial; conditions: cited from earlier work
[2] = tested on: pregnant women having a documented history of spontaneous preterm delivery; conditions: cited from earlier work
[3] = tested on: women who smoked during pregnancy; experiment: Analysis of the Example 1 trial by smoking status during pregnancy; type: in vivo, human
Protocol: (§1) In a double-blind, placebo-controlled trial, 463 pregnant women having a documented history of spontaneous preterm delivery received weekly injections of 250 mg […] caproate (17-HPC) or an inert castor oil placebo beginning at 16 to 20weeks of gestation and continuing until delivery or 36 weeks of gestation, whichever occurred first. […] A 2:1 ratio was used for the assignment of women to the 17-HPC or placebo group, since those in the placebo group would be subjected to painful injections on a weekly basis with no possibility of direct benefit. Thus, there were 310 women in the 17-HPC group and 153 women in the placebo group. The baseline characteristics of the women in the two groups were similar in terms of the mean duration of gestation of the qualifying delivery, the mean duration of gestation at the time of randomization, race or ethnic group, marital status, body mass index (BMI), educational level, smoking status, and substance use during pregnancy. The women in the placebo group had had more previous preterm deliveries (mean of 1.6 vs. 1.4 in the 17-HPC group). 91.5% of the study participants were compliant with all of their injections, noncompliance being defined as a gap of 10 days or more between any two injections, and there was no difference in the rate of compliance between the placebo group and the 17-HPC group. Preterm delivery was defined as delivery at less than 37 completed weeks (259 days) of gestation, calculated on the basis of the date of the last menstrual period and ultrasonography results.
(§2) In the clinical trial described in Example 1, 22.6% ([…]) of subjects in the 17-HPC group and 19.6% (30/153) of subjects in the placebo group smoked during pregnancy. […] Thus, it was apparent in the data that smoking increased the risk f or preterm delivery, measured either as delivery prior to 37 weeks of gestation.

[4] = as above; type: in vivo, human; conditions: women who smoked during pregnancy; 95% CI 0.0830, 0.5297
Protocol: as §1, §2

CCCCCC(=O)O[C@]1(C(C)=O)CC[C@H]2[C@@H]3CCC4=CC(=O)CC[C@]4(C)[C@H]3CC[C@@]21C [17-HPC, 17alpha-hydroxyprogesterone caproate]
health status or physical examination of the children ([1]; mean age at follow up 48 months, 194 children in 17-HPC group vs 84 placebo): No significant differences
Ages and Stages Questionnaire (development in five areas) ([1]; mean age at follow up 48 months, versus placebo): no difference
safety for the fetus ([1]; weekly intramuscular injection to the mother during second and third trimesters): appears to be safe for the fetus
incidence of preterm delivery at less than 37 weeks of gestation ([2]; 250 mg weekly injection from 16-20 weeks of gestation until delivery or 36 weeks, 111/306, placebo 54.9%): 36.3%
incidence of delivery at less than 32 weeks ([2]; 250 mg weekly, 35/306, P=0.02): 11.4%
incidence of delivery at less than 35 weeks of gestation ([2]; 250 mg weekly, 63/306, placebo 30.7%, P=0.02): 20.6%
incidence of necrotizing enterocolitis ([2]; infants of treated women, 0/305, placebo 2.6%, P=0.01): 0%
incidence of intraventricular hemorrhage of any grade ([2]; infants of treated women, 4/305, placebo 5.2%): 1.3%
incidence of birth weight of less than 1500 g ([2]; infants of treated women, 26/301, placebo 13.9%, P=0.08, non-significant): 8.6%
incidence of need for supplemental oxygen ([2]; infants of treated women, 45/303, placebo 23.8%): 14.9%
incidence of birth weight of less than 2500 g ([2]; infants of treated women, 82/301, placebo 41.1%, P=0.003): 27.2%
rate of intraventricular hemorrhage of grades 3 to 4 ([2]; versus placebo group): no significant difference between groups
rates of infant death, transient tachypnea in the newborn, distress syndrome, bronchopulmonary dysplasia, need for ventilatory support, retinopathy of prematurity, and patent ductus arteriosus ([2]; versus placebo group): slightly but not significantly lower
women needed to be treated to prevent one delivery before 32 weeks of gestation ([2]; women with similar risk level): 12 women
proportion of deliveries at less than 37 weeks of gestation, subjects who did not smoke during pregnancy ([3]; not smoking during pregnancy, 92/240, placebo 51.2% (63/123)): 38.3%
proportion of deliveries at less than 37 weeks of gestation, subjects who smoked during pregnancy ([3]; smoking during pregnancy, 23/70, placebo 70% (21/30)): 32.9%
odds ratio of preterm delivery (<37 weeks) 17-HPC vs placebo [4]: 0.21 and 0.2097
